Data reported in ChEMBL document CHEMBL1201862, “PubChem BioAssay data set” (2004).
One block for each compound: values may come before it. Activity calls are given as the source filed them.

How the values were obtained:
Format in all cases: functional
[1] = target: Dual specificity mitogen-activated protein kinase kinase 1 (Homo sapiens, UniProt Q02750); experiment: Navigating the Kinome. Panel member name: MAP2K1
[2] = target: ALK tyrosine kinase receptor (Homo sapiens, UniProt Q9UM73);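 also: ALK tested as one member of a kinase panel screen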
Sequence of ALK tyrosine kinase receptor (Q9UM73 whole entry): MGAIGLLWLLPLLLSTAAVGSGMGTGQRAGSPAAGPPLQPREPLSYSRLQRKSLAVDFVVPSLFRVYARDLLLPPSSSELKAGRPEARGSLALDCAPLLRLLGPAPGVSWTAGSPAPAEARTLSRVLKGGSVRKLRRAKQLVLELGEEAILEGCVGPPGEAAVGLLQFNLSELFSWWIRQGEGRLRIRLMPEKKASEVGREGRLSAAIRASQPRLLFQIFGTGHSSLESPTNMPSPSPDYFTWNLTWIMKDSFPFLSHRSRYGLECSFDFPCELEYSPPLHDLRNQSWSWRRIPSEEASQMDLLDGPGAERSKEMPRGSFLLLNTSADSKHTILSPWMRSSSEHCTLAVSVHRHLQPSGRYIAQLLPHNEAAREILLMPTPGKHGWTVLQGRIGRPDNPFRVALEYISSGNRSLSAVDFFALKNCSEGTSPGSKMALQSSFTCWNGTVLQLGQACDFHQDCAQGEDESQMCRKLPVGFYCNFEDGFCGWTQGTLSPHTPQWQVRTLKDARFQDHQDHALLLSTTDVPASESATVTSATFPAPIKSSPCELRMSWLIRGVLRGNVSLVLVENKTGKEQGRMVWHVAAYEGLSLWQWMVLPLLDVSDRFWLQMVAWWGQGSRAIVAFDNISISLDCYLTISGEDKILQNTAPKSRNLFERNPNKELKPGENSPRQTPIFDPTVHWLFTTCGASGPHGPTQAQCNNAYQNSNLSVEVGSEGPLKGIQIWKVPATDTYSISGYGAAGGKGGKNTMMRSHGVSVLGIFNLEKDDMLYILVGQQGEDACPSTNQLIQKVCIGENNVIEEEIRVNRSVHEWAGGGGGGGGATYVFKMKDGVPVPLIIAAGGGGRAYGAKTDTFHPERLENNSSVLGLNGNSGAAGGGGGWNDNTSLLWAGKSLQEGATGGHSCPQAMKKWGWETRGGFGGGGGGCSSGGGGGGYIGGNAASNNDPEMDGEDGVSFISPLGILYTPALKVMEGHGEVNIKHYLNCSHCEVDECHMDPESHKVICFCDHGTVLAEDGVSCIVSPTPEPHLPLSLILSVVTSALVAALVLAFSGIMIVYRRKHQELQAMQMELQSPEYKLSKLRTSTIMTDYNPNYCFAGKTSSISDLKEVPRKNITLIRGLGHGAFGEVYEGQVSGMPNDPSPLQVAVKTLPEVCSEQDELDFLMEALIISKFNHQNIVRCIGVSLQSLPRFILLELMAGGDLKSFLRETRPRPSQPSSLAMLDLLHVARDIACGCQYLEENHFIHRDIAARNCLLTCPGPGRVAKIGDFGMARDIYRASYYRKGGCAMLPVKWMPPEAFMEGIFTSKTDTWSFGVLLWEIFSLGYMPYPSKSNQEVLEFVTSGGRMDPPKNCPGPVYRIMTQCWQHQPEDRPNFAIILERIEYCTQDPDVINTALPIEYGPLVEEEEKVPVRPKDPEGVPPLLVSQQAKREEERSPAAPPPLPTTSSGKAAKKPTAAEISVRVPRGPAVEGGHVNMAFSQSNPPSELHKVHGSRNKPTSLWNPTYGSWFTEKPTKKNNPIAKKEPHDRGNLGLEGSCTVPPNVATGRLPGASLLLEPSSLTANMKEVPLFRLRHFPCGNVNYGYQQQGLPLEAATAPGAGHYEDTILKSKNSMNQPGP

[3] = target: Tyrosine-protein kinase receptor TYRO3 (Homo sapiens, UniProt Q06418);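 also: TYRO3 value obtained as one member of a kinome-wide profiling panel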
Sequence of Tyrosine-protein kinase receptor TYRO3 (Q06418 whole entry): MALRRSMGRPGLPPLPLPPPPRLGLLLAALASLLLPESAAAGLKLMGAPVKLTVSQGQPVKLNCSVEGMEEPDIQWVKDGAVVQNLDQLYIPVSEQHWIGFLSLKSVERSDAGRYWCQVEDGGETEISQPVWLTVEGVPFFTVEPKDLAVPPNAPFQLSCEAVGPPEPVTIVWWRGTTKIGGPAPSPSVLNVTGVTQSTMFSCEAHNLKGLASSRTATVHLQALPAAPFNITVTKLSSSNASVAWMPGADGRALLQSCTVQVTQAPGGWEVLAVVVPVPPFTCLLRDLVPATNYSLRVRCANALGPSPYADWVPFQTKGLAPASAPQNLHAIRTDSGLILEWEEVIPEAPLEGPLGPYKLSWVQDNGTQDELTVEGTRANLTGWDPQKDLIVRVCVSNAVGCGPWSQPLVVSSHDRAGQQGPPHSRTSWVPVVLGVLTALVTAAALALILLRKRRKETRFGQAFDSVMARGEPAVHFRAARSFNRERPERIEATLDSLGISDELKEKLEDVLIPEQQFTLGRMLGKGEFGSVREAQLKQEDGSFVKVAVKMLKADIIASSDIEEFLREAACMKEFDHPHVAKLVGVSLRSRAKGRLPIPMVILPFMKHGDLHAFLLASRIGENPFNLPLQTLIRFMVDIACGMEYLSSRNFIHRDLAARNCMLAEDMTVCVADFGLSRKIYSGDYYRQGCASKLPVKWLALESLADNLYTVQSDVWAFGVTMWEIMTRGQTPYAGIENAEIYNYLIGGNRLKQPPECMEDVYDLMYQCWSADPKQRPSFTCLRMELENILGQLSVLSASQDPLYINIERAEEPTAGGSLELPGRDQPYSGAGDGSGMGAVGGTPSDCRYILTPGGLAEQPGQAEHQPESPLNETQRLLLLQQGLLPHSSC

[4] = target: Mitogen-activated protein kinase 8 (Homo sapiens, UniProt P45983);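 also: value comes from one member of a kinome-wide kinase profiling panel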
[5] = target: Serine/threonine-protein kinase pim-1 (Homo sapiens, UniProt P11309)
Sequence of Serine/threonine-protein kinase pim-1 (P11309 whole entry): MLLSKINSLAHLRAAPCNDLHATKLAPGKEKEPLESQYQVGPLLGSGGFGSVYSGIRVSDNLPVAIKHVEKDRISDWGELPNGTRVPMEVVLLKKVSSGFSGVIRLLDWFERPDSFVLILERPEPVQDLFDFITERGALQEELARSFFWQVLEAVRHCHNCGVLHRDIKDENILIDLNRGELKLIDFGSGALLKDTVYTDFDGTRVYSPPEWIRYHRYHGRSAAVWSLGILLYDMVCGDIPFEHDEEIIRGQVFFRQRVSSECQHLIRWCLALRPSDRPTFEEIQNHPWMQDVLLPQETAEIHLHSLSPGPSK

[6] = target: Tyrosine-protein kinase BTK (Homo sapiens, UniProt Q06187)
Sequence of Tyrosine-protein kinase BTK (Q06187 whole entry): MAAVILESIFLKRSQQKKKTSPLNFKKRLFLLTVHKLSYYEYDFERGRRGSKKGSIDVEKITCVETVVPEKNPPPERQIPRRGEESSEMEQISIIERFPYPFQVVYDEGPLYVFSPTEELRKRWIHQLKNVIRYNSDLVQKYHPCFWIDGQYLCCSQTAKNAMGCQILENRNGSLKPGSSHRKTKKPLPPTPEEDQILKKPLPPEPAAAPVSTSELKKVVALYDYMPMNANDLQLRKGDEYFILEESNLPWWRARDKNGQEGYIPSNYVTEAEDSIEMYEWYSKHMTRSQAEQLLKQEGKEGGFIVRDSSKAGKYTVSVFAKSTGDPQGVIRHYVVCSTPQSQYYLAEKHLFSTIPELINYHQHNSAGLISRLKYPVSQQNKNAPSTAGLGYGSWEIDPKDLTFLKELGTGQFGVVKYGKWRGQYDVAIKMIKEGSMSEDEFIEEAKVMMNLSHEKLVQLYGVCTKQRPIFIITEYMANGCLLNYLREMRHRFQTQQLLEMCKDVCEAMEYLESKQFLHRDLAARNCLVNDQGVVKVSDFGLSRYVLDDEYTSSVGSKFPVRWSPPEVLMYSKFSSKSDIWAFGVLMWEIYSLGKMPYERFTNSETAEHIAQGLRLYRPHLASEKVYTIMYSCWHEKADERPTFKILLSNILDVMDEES

[7] = target: Fibroblast growth factor receptor 1 (Homo sapiens, UniProt P11362)
[8] = target: Serine/threonine-protein kinase TAO1 (Homo sapiens, UniProt Q7L7X3)
Sequence of Serine/threonine-protein kinase TAO1 (Q7L7X3 whole entry): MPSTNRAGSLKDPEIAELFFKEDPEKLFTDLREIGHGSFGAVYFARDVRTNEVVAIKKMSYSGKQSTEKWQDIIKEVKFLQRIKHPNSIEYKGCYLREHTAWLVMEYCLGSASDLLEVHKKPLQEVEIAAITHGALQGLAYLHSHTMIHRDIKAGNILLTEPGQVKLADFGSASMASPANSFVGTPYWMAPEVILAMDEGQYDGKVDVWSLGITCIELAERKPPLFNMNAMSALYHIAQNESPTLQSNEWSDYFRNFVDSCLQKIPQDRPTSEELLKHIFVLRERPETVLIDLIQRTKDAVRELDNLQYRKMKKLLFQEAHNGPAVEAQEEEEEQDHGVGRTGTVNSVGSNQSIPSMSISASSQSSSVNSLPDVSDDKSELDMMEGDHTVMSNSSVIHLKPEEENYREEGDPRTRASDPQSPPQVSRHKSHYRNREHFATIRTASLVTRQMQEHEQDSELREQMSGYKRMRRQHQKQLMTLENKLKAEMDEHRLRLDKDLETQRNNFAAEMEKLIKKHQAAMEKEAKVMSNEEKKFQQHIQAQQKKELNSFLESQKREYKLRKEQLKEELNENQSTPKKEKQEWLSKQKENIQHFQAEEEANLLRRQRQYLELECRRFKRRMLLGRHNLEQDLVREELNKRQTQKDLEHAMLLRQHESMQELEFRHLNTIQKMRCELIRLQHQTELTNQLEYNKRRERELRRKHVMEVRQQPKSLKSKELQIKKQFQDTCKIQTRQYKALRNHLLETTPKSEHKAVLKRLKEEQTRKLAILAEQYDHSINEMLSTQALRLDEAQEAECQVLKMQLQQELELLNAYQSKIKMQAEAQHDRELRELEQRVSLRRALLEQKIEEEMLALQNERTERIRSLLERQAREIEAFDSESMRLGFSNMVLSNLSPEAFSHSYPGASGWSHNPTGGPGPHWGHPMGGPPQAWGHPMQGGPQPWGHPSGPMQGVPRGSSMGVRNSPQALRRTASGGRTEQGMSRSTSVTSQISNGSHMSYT

[9] = target: Glycogen synthase kinase-3 alpha (Homo sapiens, UniProt P49840);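 also: GSK3A result taken from a broad kinome-wide kinase panel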
[10] = target: Mitogen-activated protein kinase kinase kinase kinase 2 (Homo sapiens, UniProt Q12851);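 also: measured as one member of a kinome-wide kinase panel, with MAP4K2 as the panel entry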
[11] = target: Activated CDC42 kinase 1 (Homo sapiens, UniProt Q07912); experiment: Navigating the Kinome. Panel member name: ACK1
[12] = target: Platelet-derived growth factor receptor beta (Homo sapiens, UniProt P09619);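 also: value comes from a kinome panel, with PDGFRB tested as one panel member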
[13] = target: Serine/threonine-protein kinase Chk1 (Homo sapiens, UniProt O14757);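 also: measured as one member of a kinome-wide kinase profiling panel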
[14] = target: Vascular endothelial growth factor receptor 2 (Homo sapiens, UniProt P35968)
[15] = target: G protein-coupled receptor kinase 5 (Homo sapiens, UniProt P34947); experiment: Navigating the Kinome. Panel member name: GPRK5
[16] = target: Leucine-rich repeat serine/threonine-protein kinase 2 (Homo sapiens, UniProt Q5S007);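 also: value from a broad kinome-wide panel profiling study in which LRRK2 was one of the kinases tested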
[17] = target: Cyclin-dependent kinase 19 (Homo sapiens, UniProt Q9BWU1); experiment: Navigating the Kinome. Panel member name: CDC2L6
[18] = target: Tyrosine-protein kinase Fyn (Homo sapiens, UniProt P06241)
[19] = target: Serine/threonine-protein kinase Nek2 (Homo sapiens, UniProt P51955)
[20] = target: Cyclin-dependent kinase 8 (Homo sapiens, UniProt P49336); experiment: Navigating the Kinome. Panel member name: CDK8
[21] = target: Glycogen synthase kinase-3 beta (Homo sapiens, UniProt P49841);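 also: value comes from a broad kinome profiling panel, with GSK3B as the panel member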
Sequence of Glycogen synthase kinase-3 beta (P49841 whole entry): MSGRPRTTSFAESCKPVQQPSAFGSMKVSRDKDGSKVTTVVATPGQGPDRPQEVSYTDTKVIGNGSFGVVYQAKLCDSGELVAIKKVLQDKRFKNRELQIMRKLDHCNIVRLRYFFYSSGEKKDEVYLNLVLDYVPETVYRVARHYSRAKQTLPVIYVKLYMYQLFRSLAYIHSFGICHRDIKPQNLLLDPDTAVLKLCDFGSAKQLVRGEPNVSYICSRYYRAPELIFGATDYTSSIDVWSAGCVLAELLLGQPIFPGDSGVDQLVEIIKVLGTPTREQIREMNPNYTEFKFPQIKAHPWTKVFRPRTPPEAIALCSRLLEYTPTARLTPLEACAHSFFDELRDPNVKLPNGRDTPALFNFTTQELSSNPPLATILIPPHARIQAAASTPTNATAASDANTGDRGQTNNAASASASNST

[22] = target: Dual specificity mitogen-activated protein kinase kinase 2 (Homo sapiens, UniProt P36507); experiment: Navigating the Kinome. Panel member name: MAP2K2
[23] = target: Inhibitor of nuclear factor kappa-B kinase subunit epsilon (Homo sapiens, UniProt Q14164); experiment: Navigating the Kinome. Panel member name: IKBKE
[24] = target: T1, High affinity choline transporter 1 (Homo sapiens, UniProt Q9GZV3); experiment: CHT activators, dose response, cell-based, 10-point CRC, membrane potential dye (AID 602376)
T1 sequence (Q9GZV3 whole entry): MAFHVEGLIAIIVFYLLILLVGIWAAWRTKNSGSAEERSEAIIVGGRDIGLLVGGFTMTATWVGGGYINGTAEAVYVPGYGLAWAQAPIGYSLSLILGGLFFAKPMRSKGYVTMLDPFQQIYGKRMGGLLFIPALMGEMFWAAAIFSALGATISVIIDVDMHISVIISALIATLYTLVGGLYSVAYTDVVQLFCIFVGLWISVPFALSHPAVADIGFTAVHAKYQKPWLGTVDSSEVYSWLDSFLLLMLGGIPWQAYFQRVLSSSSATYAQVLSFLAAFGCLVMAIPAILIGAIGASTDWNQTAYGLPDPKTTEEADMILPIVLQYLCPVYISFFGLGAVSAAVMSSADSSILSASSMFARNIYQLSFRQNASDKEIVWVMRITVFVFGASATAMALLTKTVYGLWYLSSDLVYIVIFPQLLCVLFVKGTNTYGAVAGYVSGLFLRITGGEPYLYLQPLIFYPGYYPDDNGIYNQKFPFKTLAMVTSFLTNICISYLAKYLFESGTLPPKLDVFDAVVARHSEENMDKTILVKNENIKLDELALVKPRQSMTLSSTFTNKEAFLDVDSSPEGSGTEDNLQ

[25] = target: DNA dC->dU-editing enzyme APOBEC-3G (Homo sapiens, UniProt Q9HC16); experiment: APOBEC3G deaminase inhibitors, SAR follow-up, biochemical, fluorescence, single-stranded DNA substrate (AID 602136); details: read-out: IC50_Mean
[26] = target: DNA dC->dU-editing enzyme APOBEC-3A (Homo sapiens, UniProt P31941); experiment: SAR analysis of small molecule inhibitors of APOBEC3A DNA Deaminase via a fluorescence-based single-stranded DNA deaminase assay.; details: read-out: IC50_Mean
[27] = target: T1, High affinity choline transporter 1; experiment: CHT inhibitors, dose response, cell-based, 5-point CRC, membrane potential dye (AID 504840)
[28] = target: T1, High affinity choline transporter 1; experiment: CHT inhibitors, dose response, cell-based, 10-point CRC, membrane potential dye (AID 588401);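 also: membrane potential dye fluorescence of choline-evoked depolarization via CHT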

Ki [1]: 2.51 µM (active) | Ki [2]: 5.01 µM (active) | Ki [3]: 2.51 µM (active) | Ki [4]: 5.01 µM (active) | Ki [5]: 3.98 µM (active) | Ki [6]: 5.01 µM (active) | Ki [7]: 3.98 µM (active) | Ki [8]: > 6.31 µM (inactive) | Ki [9]: 3.98 µM (active) | Ki [10]: 2.51 µM (active) | Ki [11]: 3.98 µM (active) | Ki [12]: 2 µM (active) | Ki [13]: 631 nM (active) | Ki [14]: 2 µM (active) | Ki [15]: 3.98 µM (active) | Ki [16]: 2.51 µM (active) | Ki [17]: 3.16 µM (active) | Ki [18]: 5.01 µM (active) | Ki [19]: 3.16 µM (active) | Ki [20]: 3.98 µM (active) | Ki [21]: 3.16 µM (active) | Ki [22]: 1.58 µM (active) | Ki [23]: 3.16 µM (active)
Compound: O=c1[nH]n2ccccc2c1Br

Compound: COc1ccc(-c2nnc(SC(C)C(=O)NCc3ccc4c(c3)OCO4)n2Cc2ccco2)cc1 (stereo not drawn)
EC50 [24]: 24.3 µM (active)

Compound: COc1ccc(-c2nnc(SCC(=O)c3cccc(Br)c3)[nH]2)cc1
IC50 [25]: > 99 µM (inactive) | IC50 [26]: > 99 µM (inactive)

IC50 [27]: 4.1 µM (active) | IC50 [28]: 1.41 µM (active)
Compound: Cc1cccc(NC(=O)c2[nH]nc([N+](=O)[O-])c2Br)c1C
